From ChEMBL document CHEMBL3627711, “Highly Substituted Cyclopentane-CMP Conjugates as Potent Sialyltransferase Inhibitors” (J Med Chem, 2015)
“And” between values parts separate entries of the source, which are not always exact repeats. Identical values can stand only once.

Key:
[1] = biological target: T1, Beta-galactoside alpha-2,6-sialyltransferase 1 (Homo sapiens, UniProt P15907); assay: Competitive inhibition of human recombinant ST6Gal-1 using CMP-Neu5Ac and p-nitrophenyl LacNAc as donar and acceptor by Lineweaver-Burk double reciprocal plot analysis
T1 sequence (P15907 whole entry): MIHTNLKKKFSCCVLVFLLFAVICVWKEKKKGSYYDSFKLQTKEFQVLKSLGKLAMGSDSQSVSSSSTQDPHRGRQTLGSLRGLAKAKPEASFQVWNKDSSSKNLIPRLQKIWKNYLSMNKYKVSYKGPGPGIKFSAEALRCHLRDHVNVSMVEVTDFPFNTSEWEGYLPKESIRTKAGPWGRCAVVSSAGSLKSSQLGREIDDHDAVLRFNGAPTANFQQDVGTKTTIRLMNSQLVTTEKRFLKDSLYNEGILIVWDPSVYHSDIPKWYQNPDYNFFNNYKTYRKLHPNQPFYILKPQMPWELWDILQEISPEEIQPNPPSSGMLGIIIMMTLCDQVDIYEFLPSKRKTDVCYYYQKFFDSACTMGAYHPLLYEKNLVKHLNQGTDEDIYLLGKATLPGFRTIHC

[2] = biological target: T2, Beta-galactoside alpha-2,6-sialyltransferase 1 (Homo sapiens) (UniProt P15907); assay: Inhibition of human recombinant ST6Gal-1 assessed as trisaccharide formation using CMP-Neu5Ac and p-nitrophenyl LacNAc as donar and acceptor at 10 uM by RP-HPLC analysis
T2 sequence (whole entry): T1 sequence (P15907 whole entry)

[3] = biological target: T2, Beta-galactoside alpha-2,6-sialyltransferase 1 (Homo sapiens); assay: Ratio of CMP-Neu5Ac Km to compound Ki for human recombinant ST6Gal-1
[4] = Inhibition of rat alpha-2,6-sialyltransferase

Row | Ki [1] | inhibition [2] | Ratio [3] | Ki [4] | SMILES
1 | 1510 nM | – | – | – | CC(=O)N[C@H]1C[C@@H](C(OP(=O)(O)OC[C@H]2O[C@@H](n3ccc(N)nc3=O)[C@H](O)[C@@H]2O)P(=O)(O)O)C[C@H]1OCc1ccccc1 (stereo in doubt; 5Rs) [listing 1 of 2 here]
2 | 477 nM | – | – | – | CC(=O)NC[C@@H]1CCC(OP(=O)(O)OC[C@H]2O[C@@H](n3ccc(N)nc3=O)[C@H](O)[C@@H]2O)(P(=O)(O)O)[C@H]1OCc1ccccc1 (stereo in doubt; 48s) [listing 1 of 2 here]
3 | – | 65.9% | 27.6 | – | CC(=O)N[C@H]1C[C@@H](C(OP(=O)(O)OC[C@H]2O[C@@H](n3ccc(N)nc3=O)[C@H](O)[C@@H]2O)P(=O)(O)O)C[C@H]1OCc1ccccc1 (stereo in doubt; 5Rs) [listing 2 of 2 here]
4 | – | 43.2% | 7.1 | – | Nc1ccn([C@@H]2O[C@H](COP(=O)(O)OC(C3CCCC3)P(=O)(O)O)[C@@H](O)[C@H]2O)c(=O)n1 (stereo in doubt; 2s) [listing 1 of 2 here]
5 | – | 12.8% | – | – | Nc1ccn([C@@H]2O[C@H](COP(=O)(O)OC(C3CCCC3)P(=O)(O)O)[C@@H](O)[C@H]2O)c(=O)n1 (stereo in doubt; 2l)
6 | – | 97.5% | 1490 | – | CC(=O)NC[C@@H]1CCC(OP(=O)(O)OC[C@H]2O[C@@H](n3ccc(N)nc3=O)[C@H](O)[C@@H]2O)(P(=O)(O)O)[C@H]1OCc1ccccc1 (stereo in doubt; 48l) [listing 1 of 2 here]
7 | – | 13% | – | – | Nc1ccn([C@@H]2O[C@H](COP(=O)(O)OC([C@H]3C[C@@H](O)[C@@H](O)C3)P(=O)(O)O)[C@@H](O)[C@H]2O)c(=O)n1 (stereo in doubt; 3l)
8 | 865 nM | 46.3% and 70.8% | 48.1 | – | CC(=O)NC[C@@H]1C[C@@H](C(OP(=O)(O)OC[C@H]2O[C@@H](n3ccc(N)nc3=O)[C@H](O)[C@@H]2O)P(=O)(O)O)C[C@H]1OCc1ccccc1 (stereo partly drawn)
9 | – | 9.99% | – | – | CC(=O)N[C@H]1C[C@H](C(OP(=O)(O)OC[C@H]2O[C@@H](n3ccc(N)nc3=O)[C@H](O)[C@@H]2O)P(=O)(O)O)C[C@H]1O (stereo in doubt; 4Sl)
10 | – | 50.3% | 9.6 | – | CC(=O)N[C@H]1C[C@H](C(OP(=O)(O)OC[C@H]2O[C@@H](n3ccc(N)nc3=O)[C@H](O)[C@@H]2O)P(=O)(O)O)C[C@H]1O (stereo in doubt; 4Ss) [listing 1 of 2 here]
11 | – | – | – | 29 nM | CC(=O)N[C@H]1[C@H](Oc2ccccc2)OC(C(OP(=O)(O)OC[C@H]2O[C@@H](n3ccc(N)nc3=O)[C@H](O)[C@@H]2O)P(=O)(O)O)=C[C@@H]1O (stereo partly drawn)
12 | 1630 nM | – | – | – | CC(=O)N[C@H]1C[C@H](C(OP(=O)(O)OC[C@H]2O[C@@H](n3ccc(N)nc3=O)[C@H](O)[C@@H]2O)P(=O)(O)O)C[C@H]1OCc1ccccc1 (stereo in doubt; 5Ss) [listing 1 of 2 here]
13 | 4310 nM | – | – | – | CC(=O)N[C@H]1C[C@H](C(OP(=O)(O)OC[C@H]2O[C@@H](n3ccc(N)nc3=O)[C@H](O)[C@@H]2O)P(=O)(O)O)C[C@H]1O (stereo in doubt; 4Ss) [listing 2 of 2 here]
14 | – | 74.1% | 87.3 | – | CC(=O)NC[C@@H]1CCC(OP(=O)(O)OC[C@H]2O[C@@H](n3ccc(N)nc3=O)[C@H](O)[C@@H]2O)(P(=O)(O)O)[C@H]1OCc1ccccc1 (stereo in doubt; 48s) [listing 2 of 2 here]
15 | – | 22.1% | – | – | CC(=O)N[C@H]1C[C@@H](C(OP(=O)(O)OC[C@H]2O[C@@H](n3ccc(N)nc3=O)[C@H](O)[C@@H]2O)P(=O)(O)O)C[C@H]1OCc1ccccc1 (stereo in doubt; 5Rl)
16 | 19 nM | 98.1% | 2190 | – | Nc1ccn([C@@H]2O[C@H](COP(=O)(O)OC(c3cccc(Oc4ccccc4)c3)P(=O)(O)O)[C@@H](O)[C@H]2O)c(=O)n1 (stereo partly drawn)
17 | – | 63.9% | 25.6 | – | CC(=O)N[C@H]1C[C@H](C(OP(=O)(O)OC[C@H]2O[C@@H](n3ccc(N)nc3=O)[C@H](O)[C@@H]2O)P(=O)(O)O)C[C@H]1OCc1ccccc1 (stereo in doubt; 5Ss) [listing 2 of 2 here]
18 | 5850 nM | – | – | – | Nc1ccn([C@@H]2O[C@H](COP(=O)(O)OC(C3CCCC3)P(=O)(O)O)[C@@H](O)[C@H]2O)c(=O)n1 (stereo in doubt; 2s) [listing 2 of 2 here]
19 | – | 31% | – | – | Nc1ccn([C@@H]2O[C@H](COP(=O)(O)OC([C@H]3C[C@@H](O)[C@@H](O)C3)P(=O)(O)O)[C@@H](O)[C@H]2O)c(=O)n1 (stereo in doubt; 3s)
20 | – | 75.3% | 95.5 | – | CC(=O)N[C@H]1C[C@H](C(OP(=O)(O)OC[C@H]2O[C@@H](n3ccc(N)nc3=O)[C@H](O)[C@@H]2O)P(=O)(O)O)C[C@H]1OCc1ccccc1 (stereo in doubt; 5Sl) [listing 1 of 2 here]
21 | 28 nM | – | – | – | CC(=O)NC[C@@H]1CCC(OP(=O)(O)OC[C@H]2O[C@@H](n3ccc(N)nc3=O)[C@H](O)[C@@H]2O)(P(=O)(O)O)[C@H]1OCc1ccccc1 (stereo in doubt; 48l) [listing 2 of 2 here]
22 | 436 nM | – | – | – | CC(=O)N[C@H]1C[C@H](C(OP(=O)(O)OC[C@H]2O[C@@H](n3ccc(N)nc3=O)[C@H](O)[C@@H]2O)P(=O)(O)O)C[C@H]1OCc1ccccc1 (stereo in doubt; 5Sl) [listing 2 of 2 here]
